Data set [1] can be described thus: Determination of lipid-water partition coefficient (n-octanol/PBS pH 7.4). As to conditions: n-octanol/phosphate buffer solution (PBS), n-octanol / PBS 0.025 M. The data set is classed as physicochemical. On the procedure:
A 2 mL centrifuge tube was added with 100 µL (10µCi) of a labeling solution, then added with 950 µL of n-octanol and 850 µL of phosphate buffer solution (PBS, 0.025 M, pH=7.4). The 2 mL centrifuge tube was subjected to vortex for 3 min (2,500 rpm) and standing until the reaction solution was layered, and then centrifuged at 9,000 rpm for 5 min. Three samples (each for 100 µL) were collected from each of the two phases, and placed in γ-counter for the determination of radioactive counting. The lipid-water partition coefficient (P) was calculated by Organic phase radioactive counting/ water phase radioactive counting, and was usually expressed as Log P. The log P values of the radioactive compounds provided in Examples 1-4 were shown in Table 3.

The test system of data set [2] is S180 tumor. Kind of data set: Biodistribution in tumor-bearing mice. In kind it is in vivo. As to conditions: for Blood / Bone / Heart / Kidney / Liver / Lung / Muscle / Small intestine / Spleen / Thyroid / Tumor / Tumor/blood ratio / Tumor/muscle ratio: i.v., mice bearing S180 tumor; for target/non-target ratio compared with 99mTc-CNPEDG / tumor uptake compared with 99mTc-CNPEDG / tumor/muscle, tumor/blood and tumor/lung ratio compared with p-substituted 99mTc complexes / Tumor/lung ratio: 120 min p.i.; for target/non-target ratio compared with 99mTc-CNPEDG / tumor uptake compared with 99mTc-CNPEDG / tumor/muscle, tumor/blood and tumor/lung ratio compared with p-substituted 99mTc complexes: in words. On the procedure:
The mice bearing S180 tumors were injected intravenously via the tail vein respectively with the solutions (0.1 mL, 370 kBq) containing the radioactive drugs of Examples 1-4. The mice bearing S180 tumors were sacrificed by decapitation at different time points (30 min, 120 min) after the injection (5 mice for each time point). After dissection, the heart, liver, lung, kidney, spleen, bone, muscle, small intestine, blood and tumors were harvested, and measured for radioactivity with the γ-counter. The biodistribution individual organs or tissues was expressed as the percentage of the injected dose per gram of organ or tissue (% ID/g).

What is called logP is a log measure of how a compound divides between an organic and an aqueous phase. A lower logP goes with lower lipophilicity.

`O=C(NC1C(O)OC(CO)C(O)C1O)c1cccc([N+]#[C][99Tc+]([C]#[N+]c2cccc(C(=O)NC3C(O)OC(CO)C(O)C3O)c2)([C]#[N+]c2cccc(C(=O)NC3C(O)OC(CO)C(O)C3O)c2)([C]#[N+]c2cccc(C(=O)NC3C(O)OC(CO)C(O)C3O)c2)([C]#[N+]c2cccc(C(=O)NC3C(O)OC(CO)C(O)C3O)c2)[C]#[N+]c2cccc(C(=O)NC3C(O)OC(CO)C(O)C3O)c2)c1` (stereo not shown) [^99mTc-3-CNBzDG] showed a logP in data set [1] of -3.74 ± 0.038. Also, in data set [2] (30 min, n=5, mean ± SD), the Blood was 2.53 ± 0.83 % ID/g, the Bone was determined as 1.44 ± 0.29 % ID/g, the Heart was determined as 1.44 ± 0.21 % ID/g and the Kidney came out at 6.69 ± 0.68 % ID/g. Further, in data set [2] (30 min, n=5, mean ± SD), the Liver came to 1.38 ± 0.24 % ID/g, the Lung is listed as 4.00 ± 0.52 % ID/g, the Muscle is on record as 0.77 ± 0.06 % ID/g and the Small intestine was 2.05 ± 0.29 % ID/g. In data set [2] (30 min, n=5, mean ± SD), the Spleen was 1.06 ± 0.27 % ID/g, the Thyroid turned out to be 0.03 ± 0.01 %ID/g, the Tumor was determined as 2.51 ± 0.52 % ID/g and the Tumor/blood ratio was 1.04 ± 0.22. Also, the Tumor/muscle ratio in data set [2] (30 min, n=5, mean ± SD) was 3.28 ± 0.66. Also, in data set [2] (120 min, mean ± SD), the Blood amounted to 0.27 ± 0.02 % ID/g, the Bone came to 0.42 ± 0.03 % ID/g, the Heart is 0.54 ± 0.07 % ID/g and the Kidney stood at 4.49 ± 0.56 % ID/g. In data set [2] (120 min, mean ± SD), this compound yielded a Liver of 0.89 ± 0.09 % ID/g, a Lung of 0.76 ± 0.20 % ID/g, a Muscle of 0.24 ± 0.05 % ID/g and a Small intestine of 0.70 ± 0.10 % ID/g. Besides, in data set [2] (120 min, mean ± SD), the Spleen worked out at 0.43 ± 0.17 % ID/g, the Thyroid is reported as 0.01 ± 0.00 %ID/g, the Tumor is reported as 1.47 ± 0.22 % ID/g and the Tumor/blood ratio is 5.39 ± 0.79. The Tumor/muscle ratio in data set [2] (120 min, mean ± SD) amounted to 6.16 ± 0.71. Besides, in data set [2], the “target/non-target ratio compared with 99mTc-CNPEDG” value is “better target/non-target ratio”; the “tumor uptake compared with 99mTc-CNPEDG” value was “lower tumor uptake”; the “tumor/muscle, tumor/blood and tumor/lung ratio compared with p-substituted 99mTc complexes” value is on record as “higher”. Also, the Tumor/lung ratio in data set [2] (mean ± SD) was 2.01 ± 0.35.
Compound `O=C(NC1C(O)OC(CO)C(O)C1O)c1cccc(C[N+]#[C][99Tc+]([C]#[N+]Cc2cccc(C(=O)NC3C(O)OC(CO)C(O)C3O)c2)([C]#[N+]Cc2cccc(C(=O)NC3C(O)OC(CO)C(O)C3O)c2)([C]#[N+]Cc2cccc(C(=O)NC3C(O)OC(CO)C(O)C3O)c2)([C]#[N+]Cc2cccc(C(=O)NC3C(O)OC(CO)C(O)C3O)c2)[C]#[N+]Cc2cccc(C(=O)NC3C(O)OC(CO)C(O)C3O)c2)c1` (stereo not shown) [^99mTc-3-CNPEDG] registered a logP in data set [1] of -3.39 ± 0.166. Moreover, in data set [2] (30 min, n=5, mean ± SD), the Blood was 2.82 ± 0.30 % ID/g, the Bone is recorded as 1.26 ± 0.23 % ID/g, the Heart was 1.18 ± 0.12 % ID/g and the Kidney is 9.69 ± 3.48 % ID/g. In data set [2] (30 min, n=5, mean ± SD), this compound showed a Liver of 1.30 ± 0.06 % ID/g, a Lung of 3.10 ± 0.22 % ID/g, a Muscle of 0.82 ± 0.24 % ID/g and a Small intestine of 2.19 ± 0.69 % ID/g. Moreover, in data set [2] (30 min, n=5, mean ± SD), the Spleen is listed as 0.86 ± 0.09 % ID/g, the Thyroid is 0.04 ± 0.01 %ID/g, the Tumor was found to be 2.72 ± 0.36 % ID/g and the Tumor/blood ratio stood at 0.97 ± 0.07. Also, the Tumor/muscle ratio in data set [2] (30 min, n=5, mean ± SD) was 3.49 ± 0.71. In data set [2] (120 min, mean ± SD), this compound registered a Blood of 0.22 ± 0.07 % ID/g, a Bone of 0.30 ± 0.06 % ID/g, a Heart of 0.23 ± 0.05 % ID/g and a Kidney of 4.70 ± 0.81 % ID/g. In data set [2] (120 min, mean ± SD), this compound returned a Liver of 0.68 ± 0.07 % ID/g, a Lung of 0.42 ± 0.09 % ID/g, a Muscle of 0.16 ± 0.04 % ID/g and a Small intestine of 0.43 ± 0.11 % ID/g. Further, in data set [2] (120 min, mean ± SD), the Spleen was 0.25 ± 0.06 % ID/g, the Thyroid amounted to 0.01 ± 0.00 %ID/g, the Tumor was 1.35 ± 0.20 % ID/g and the Tumor/blood ratio was determined as 6.40 ± 1.45. Also, the Tumor/muscle ratio in data set [2] (120 min, mean ± SD) is given as 8.76 ± 1.14. In data set [2], the “target/non-target ratio compared with 99mTc-CNPEDG” value is recorded as “better target/non-target ratio”; the “tumor uptake compared with 99mTc-CNPEDG” value is given as “lower tumor uptake”; the “tumor/muscle, tumor/blood and tumor/lung ratio compared with p-substituted 99mTc complexes” value is recorded as “higher”. The Tumor/lung ratio in data set [2] (mean ± SD) is reported as 3.26 ± 0.37.
With `O=C(NC1C(O)OC(CO)C(O)C1O)c1ccc([N+]#[C][99Tc+]([C]#[N+]c2ccc(C(=O)NC3C(O)OC(CO)C(O)C3O)cc2)([C]#[N+]c2ccc(C(=O)NC3C(O)OC(CO)C(O)C3O)cc2)([C]#[N+]c2ccc(C(=O)NC3C(O)OC(CO)C(O)C3O)cc2)([C]#[N+]c2ccc(C(=O)NC3C(O)OC(CO)C(O)C3O)cc2)[C]#[N+]c2ccc(C(=O)NC3C(O)OC(CO)C(O)C3O)cc2)cc1` (stereo not shown) [^99mTc-4-CNBzDG], in data set [2] (120 min, mean ± SD), the Tumor/blood ratio is 0.47 ± 0.02 and the Tumor/muscle ratio is listed as 2.34 ± 0.18. The Tumor/lung ratio in data set [2] (mean ± SD) was found to be 0.49 ± 0.02.
In the case of `O=C(NC1C(O)OC(CO)C(O)C1O)c1ccc(C[N+]#[C][99Tc+]([C]#[N+]Cc2ccc(C(=O)NC3C(O)OC(CO)C(O)C3O)cc2)([C]#[N+]Cc2ccc(C(=O)NC3C(O)OC(CO)C(O)C3O)cc2)([C]#[N+]Cc2ccc(C(=O)NC3C(O)OC(CO)C(O)C3O)cc2)([C]#[N+]Cc2ccc(C(=O)NC3C(O)OC(CO)C(O)C3O)cc2)[C]#[N+]Cc2ccc(C(=O)NC3C(O)OC(CO)C(O)C3O)cc2)cc1` (stereo not shown) [^99mTc-CNPEDG, reference compound], in data set [2] (120 min, mean ± SD), the Blood came to 1.29 ± 0.16 % ID/g, the Kidney stood at 7.56 ± 0.94 % ID/g, the Liver turned out to be 2.52 ± 0.26 % ID/g and the Lung worked out at 2.39 ± 0.31 % ID/g. Further, in data set [2] (120 min, mean ± SD), the Muscle is listed as 0.82 ± 0.08 % ID/g, the Tumor stood at 4.25 ± 0.56 % ID/g, the Tumor/blood ratio is on record as 3.29 ± 0.12 and the Tumor/muscle ratio was determined as 5.21 ± 0.50.

(Values after patent US20230263914A1, “BENZENE RING-CONTAINING GLUCOSE DERIVATIVE AND USE THEREOF” (priority 2020, published 2023).)
